The record followed here is ChEMBL document CHEMBL1909046, “DrugMatrix in vitro pharmacology data”.

In test [1] the target is Delta-type opioid receptor (Homo sapiens, UniProt P41143). Format: cell membranes, HEK293, Membrane. Further: in other assays of this panel Not Active means under 50% inhibition at 10 µM.
The target in test [2] is T1, Adenosine receptor A3 (Homo sapiens, UniProt P0DMS8).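 Further: radioligand binding assay with AB-MECA serving as the labeled ligand; in other assays of this panel Not Active means under 50% inhibition at 10 µM.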
T1 sequence (P0DMS8 whole entry): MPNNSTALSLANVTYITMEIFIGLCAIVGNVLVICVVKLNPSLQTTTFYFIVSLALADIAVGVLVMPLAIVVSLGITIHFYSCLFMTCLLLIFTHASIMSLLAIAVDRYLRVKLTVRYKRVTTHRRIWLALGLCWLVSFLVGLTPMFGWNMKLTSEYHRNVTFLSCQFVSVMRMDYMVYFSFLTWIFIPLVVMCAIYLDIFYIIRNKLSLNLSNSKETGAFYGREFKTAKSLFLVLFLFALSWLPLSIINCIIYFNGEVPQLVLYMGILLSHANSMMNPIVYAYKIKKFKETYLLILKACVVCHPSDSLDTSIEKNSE
The test is classed as cell membranes, CHO-K1, Membrane. To be noted: for Ki: read-out: Ki.

The target of test [3] is Protein phosphatase 3 catalytic subunit alpha (Homo sapiens, UniProt Q08209). Also noted: species or system Escherichia coli.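 Further: inhibition of calcineurin (PP2B) enzyme activity, measured with DiFMUP as the substrate; in other assays of this panel Not Active means under 50% inhibition at 10 µM.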
Test [4] has as its target T2, Alpha-1A adrenergic receptor (Rattus norvegicus, UniProt P43140).
T2 sequence (P43140 whole entry): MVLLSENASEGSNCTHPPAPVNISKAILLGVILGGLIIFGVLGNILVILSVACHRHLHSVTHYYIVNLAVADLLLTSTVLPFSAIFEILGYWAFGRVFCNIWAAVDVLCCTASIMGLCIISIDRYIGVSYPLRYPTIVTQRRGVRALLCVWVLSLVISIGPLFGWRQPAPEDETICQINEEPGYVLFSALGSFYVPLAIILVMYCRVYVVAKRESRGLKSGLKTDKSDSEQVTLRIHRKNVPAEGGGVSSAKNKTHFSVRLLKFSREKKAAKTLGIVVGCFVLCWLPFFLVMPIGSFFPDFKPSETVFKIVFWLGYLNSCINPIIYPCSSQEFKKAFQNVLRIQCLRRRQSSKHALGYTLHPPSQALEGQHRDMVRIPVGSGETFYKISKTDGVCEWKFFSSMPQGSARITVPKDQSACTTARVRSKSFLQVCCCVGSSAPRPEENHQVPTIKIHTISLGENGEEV
Description: DRUGMATRIX: Alpha-1A adrenergic receptor radioligand binding (ligand: prazosin). Format: cell membranes, Wistar, Submaxillary gland, Membrane. To be noted: Not Active = under 50% inhibition at 10 µM.

A short description of test [5]: DRUGMATRIX: ATPase, Na+/K+ enzyme inhibition (substrate: ATP). Format: tissue-based, Sus scrofa, Heart. To be noted: Not Active = under 50% inhibition at 10 µM.
Test [6] concerns the target T3, Receptor-type tyrosine-protein phosphatase C (Homo sapiens, UniProt P08575).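 Further: inhibition of CD45 enzyme activity measured using DiFMUP as substrate; in other assays of this panel Not Active means under 50% inhibition at 10 µM.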
T3 sequence (P08575 whole entry): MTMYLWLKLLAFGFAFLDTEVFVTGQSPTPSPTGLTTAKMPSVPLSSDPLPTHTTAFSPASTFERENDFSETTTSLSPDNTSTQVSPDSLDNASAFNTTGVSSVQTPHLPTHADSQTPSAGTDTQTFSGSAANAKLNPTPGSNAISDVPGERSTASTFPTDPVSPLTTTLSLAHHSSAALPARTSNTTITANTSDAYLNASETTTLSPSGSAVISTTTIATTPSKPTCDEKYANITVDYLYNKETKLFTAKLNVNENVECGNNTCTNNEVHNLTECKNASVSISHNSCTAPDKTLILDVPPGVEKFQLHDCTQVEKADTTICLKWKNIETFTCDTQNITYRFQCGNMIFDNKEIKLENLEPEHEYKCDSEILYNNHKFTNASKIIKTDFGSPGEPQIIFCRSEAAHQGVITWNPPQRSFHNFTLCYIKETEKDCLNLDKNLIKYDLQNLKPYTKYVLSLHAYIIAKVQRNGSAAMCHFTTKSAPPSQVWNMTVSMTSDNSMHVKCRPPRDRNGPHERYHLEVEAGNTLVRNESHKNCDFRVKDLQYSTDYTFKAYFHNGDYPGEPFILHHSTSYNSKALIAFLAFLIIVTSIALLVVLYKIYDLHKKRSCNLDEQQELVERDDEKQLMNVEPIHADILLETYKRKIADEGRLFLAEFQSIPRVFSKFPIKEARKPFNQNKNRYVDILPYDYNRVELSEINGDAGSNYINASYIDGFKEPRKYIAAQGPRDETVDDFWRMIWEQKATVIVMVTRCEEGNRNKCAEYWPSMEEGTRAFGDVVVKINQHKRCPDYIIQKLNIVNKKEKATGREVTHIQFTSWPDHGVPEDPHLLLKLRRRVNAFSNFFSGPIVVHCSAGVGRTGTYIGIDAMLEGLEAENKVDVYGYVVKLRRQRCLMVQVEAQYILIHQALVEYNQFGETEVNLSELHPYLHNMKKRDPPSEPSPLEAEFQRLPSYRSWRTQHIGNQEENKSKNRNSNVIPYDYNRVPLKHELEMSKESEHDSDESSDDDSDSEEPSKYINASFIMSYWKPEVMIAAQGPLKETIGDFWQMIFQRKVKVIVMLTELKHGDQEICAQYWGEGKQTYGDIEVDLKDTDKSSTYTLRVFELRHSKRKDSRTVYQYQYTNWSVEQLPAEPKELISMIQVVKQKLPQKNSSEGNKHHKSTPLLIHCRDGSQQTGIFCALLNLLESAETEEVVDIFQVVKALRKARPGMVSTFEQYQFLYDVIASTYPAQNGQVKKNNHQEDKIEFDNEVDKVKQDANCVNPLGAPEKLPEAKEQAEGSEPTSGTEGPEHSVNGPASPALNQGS
Also noted: species or system Escherichia coli.

One may read the IC50 as the concentration at which inhibition is half-maximal. What is called Ki is the dissociation constant of the complex between target and ligand, obtained from inhibition or displacement.

Sequence of Delta-type opioid receptor (P41143 whole entry): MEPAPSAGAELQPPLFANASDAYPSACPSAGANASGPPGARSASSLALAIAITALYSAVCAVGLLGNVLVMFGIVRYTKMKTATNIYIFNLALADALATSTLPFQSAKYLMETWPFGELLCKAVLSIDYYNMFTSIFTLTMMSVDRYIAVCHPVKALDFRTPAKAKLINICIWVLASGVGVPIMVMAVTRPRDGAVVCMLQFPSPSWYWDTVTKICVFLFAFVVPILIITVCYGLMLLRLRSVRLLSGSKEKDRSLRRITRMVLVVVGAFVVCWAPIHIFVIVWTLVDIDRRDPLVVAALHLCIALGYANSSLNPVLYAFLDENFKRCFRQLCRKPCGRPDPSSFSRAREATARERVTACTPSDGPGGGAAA

`CCOc1nc2cccc(C(=O)O)c2n1Cc1ccc(-c2ccccc2-c2nnn[nH]2)cc1`: the IC50 result in test [1] (hek293) was “Not Active”; in test [2] (read-out: IC50), 1.22 µM; in test [3] it was “Not Active”; in test [4], “Not Active”; in test [5], “Not Active”; in test [6], “Not Active”. Besides, the results for the Ki in test [2] and in test [5] were 0.69 µM and “Not Active”, respectively.
On to `O=C(O)CCCc1cccs1`, for which the IC50 result in test [1] (hek293), in test [2] (cho-k1), in test [3], in test [4], in test [5] and in test [6] was “Not Active” in each case. For the same compound, the Ki entry in test [5] was “Not Active”.
Regarding `COc1ccccc1N`, the half-maximal inhibitory concentration (IC50) result in test [1] (hek293), in test [2] (cho-k1), in test [3], in test [4], in test [5] and in test [6] was “Not Active” each time. For the same compound, the Ki entry in test [5] is listed as “Not Active”.
With `O=C(c1ccccc1F)N1CCC(Cc2ccccc2)CC1`, the IC50 result in test [1] (hek293), in test [2] (cho-k1), in test [3], in test [4], in test [5] and in test [6] was “Not Active” throughout. The Ki result in test [5] is listed as “Not Active”.
Turning to `Cc1c(O)cccc1C(=O)N[C@@H](CSc1ccccc1)[C@H](O)CN1C[C@H]2CCCC[C@H]2C[C@H]1C(=O)NC(C)(C)C`, the IC50 is 66.1 µM in test [1] (read-out: IC50); 14.8 µM in test [2] (read-out: IC50); “Not Active” in test [3]; “Not Active” in test [4]; “Not Active” in test [5]; “Not Active” in test [6]. Besides, the figures for the Ki in test [1] (read-out: Ki), in test [2] and in test [5] were 23.3 µM, 8.36 µM and “Not Active”, respectively.
On to `CC(O)COC[C@H]1O[C@@H]2O[C@H]3[C@H](O)[C@@H](O)[C@@H](O[C@H]4[C@H](O)[C@@H](O)[C@@H](O[C@H]5[C@H](O)[C@@H](O)[C@@H](O[C@H]6[C@H](O)[C@@H](O)[C@@H](O[C@H]7[C@H](O)[C@@H](O)[C@@H](O[C@H]8[C@H](O)[C@@H](O)[C@@H](O[C@H]1[C@H](O)[C@H]2O)O[C@@H]8COCC(C)O)O[C@@H]7COCC(C)O)O[C@@H]6COCC(C)O)O[C@@H]5COCC(C)O)O[C@@H]4COCC(C)O)O[C@@H]3COCC(C)O` (stereo partly drawn) [2-HYDROXYPROPYL-BETA-CYCLODEXTRIN], for which the IC50 entry in test [1] (hek293), in test [2] (cho-k1), in test [3], in test [4], in test [5] and in test [6] was “Not Active” in each case. The Ki result in test [5] was “Not Active”.
Take `NC(=O)c1cccc(N)c1` [3-AMINOBENZAMIDE]: the IC50 entry in test [1] (hek293), in test [2] (cho-k1), in test [3], in test [4], in test [5] and in test [6] was “Not Active” each time. In test [5], the Ki result is on record as “Not Active”.
For the compound `C[C@H]1O[C@H](O[C@H]2[C@H](O)[C@@H](O)[C@@H](O[C@H]3[C@H](O)[C@@H](O)C(O)O[C@@H]3CO)O[C@@H]2CO)[C@H](O)[C@@H](O)[C@@H]1N[C@H]1C=C(CO)[C@@H](O)[C@H](O)[C@H]1O` (stereo partly specified) [ACARBOSE], the IC50 result in test [1] (hek293), in test [2] (cho-k1), in test [3], in test [4], in test [5] and in test [6] was “Not Active” each time. The inhibition constant (Ki) result in test [5] is reported as “Not Active”.
As to `CC[C@H]1[C@@H]2C[C@H]3[C@@H]4N(C)c5ccccc5[C@]45C[C@@H]([C@@H]2[C@H]5O)N3[C@@H]1O` [AJMALINE], the IC50 result in test [1] (hek293), in test [2] (cho-k1), in test [3], in test [4], in test [5] and in test [6] was “Not Active” in each case. In test [5], the Ki result was “Not Active”.
With `NC12CC3CC(CC(C3)C1)C2` [AMANTADINE], the IC50 entry in test [1] (hek293), in test [2] (cho-k1), in test [3], in test [4], in test [5] and in test [6] was “Not Active” each time. In addition, the Ki entry in test [5] was “Not Active”.
On to `NCCCNCCSP(=O)(O)O` [AMIFOSTINE], for which the IC50 result in test [1] (hek293), in test [2] (cho-k1), in test [3], in test [4], in test [5] and in test [6] was “Not Active” in each case. Also, the Ki entry in test [5] is given as “Not Active”.
With `CN(C)CCC=C1c2ccccc2CCc2ccccc21` [AMITRIPTYLINE], the IC50 entry is “Not Active” in test [1] (hek293); “Not Active” in test [2] (cho-k1); “Not Active” in test [3]; 14 nM in test [4] (read-out: IC50); “Not Active” in test [5]; “Not Active” in test [6]. In addition, the results for the Ki in test [4] (read-out: Ki) and in test [5] were 5.6 nM and “Not Active”, respectively.
Regarding `CC(=O)Oc1ccccc1C(=O)O` [ASPIRIN], the IC50 entry in test [1] (hek293), in test [2] (cho-k1), in test [3], in test [4], in test [5] and in test [6] was “Not Active” throughout. For the same compound, the Ki entry in test [5] was “Not Active”.
`CC(C)c1c(C(=O)Nc2ccccc2)c(-c2ccccc2)c(-c2ccc(F)cc2)n1CC[C@@H](O)C[C@@H](O)CC(=O)O` [ATORVASTATIN]: the IC50 entry in test [1] (hek293), in test [2] (cho-k1), in test [3], in test [4], in test [5] and in test [6] was “Not Active” in each case. In test [5], the Ki result is recorded as “Not Active”.
On to `CC(=O)OC[C@H]1O[C@@H](n2ncc(=O)[nH]c2=O)[C@H](OC(C)=O)[C@@H]1OC(C)=O` [AZARIBINE], for which the IC50 result in test [1] (hek293), in test [2] (cho-k1), in test [3], in test [4], in test [5] and in test [6] was “Not Active” in each case. In addition, the Ki entry in test [5] is “Not Active”.
With `C[C@H]1[C@H](NC(=O)/C(=N\OC(C)(C)C(=O)O)c2csc(N)n2)C(=O)N1S(=O)(=O)O` [AZTREONAM], the half-maximal inhibitory concentration (IC50) entry in test [1] (hek293), in test [2] (cho-k1), in test [3], in test [4], in test [5] and in test [6] was “Not Active” in each case. Moreover, the Ki entry in test [5] is recorded as “Not Active”.
